The test system of series [1] is Mus musculus. The series is described as follows: Anti-analeptic activity in mouse assessed as reduction in corazol-induced convulsion at 25 mg/kg relative to control. In kind it is functional. On the set-up: scale not given: the % may be the effect or the level left.
Series [2] is described as follows: Protection against caffeine-induced mortality in mouse at 250 mg/kg. In kind it is ADME, organism-based. To be noted: in vivo.
A short description of series [3]: Protection against strychnine-induced mortality in mouse at 100 mg/kg. In kind it is ADME, organism-based. To be noted: in vivo.
Series [4] deals with Mus musculus. The series is described as follows: Anti-analeptic activity in mouse assessed as reduction in convulsion at 125 to 150 mg/kg coadministered with camphor relative to control. The settings on record: dose 125-150 mg/kg. In kind it is functional. On the set-up: scale not given: the % may be the effect or the level left.
Series [5] deals with Mus musculus. Description: Anti-analeptic activity in mouse assessed as reduction in lethality at 125 to 150 mg/kg coadministered with camphor relative to control. In kind it is functional. On the set-up: scale not given: the % may be the effect or the level left. The settings on record: dose 125-150 mg/kg.
In series [6] the test system is Mus musculus. Description: Anti-analeptic activity in mouse assessed as reduction in corazol-induced convulsion at 75 mg/kg relative to control. In kind it is functional. Set-up: scale not given: the % may be the effect or the level left.
Series [7] deals with Neuronal acetylcholine receptor subunit alpha-7 (Rattus norvegicus, UniProt Q05941). The series is described as follows: Agonist activity at rat alpha7 nAChR expressed in Xenopus laevis oocytes. In kind it is cell-based, Oocyte.
For series [8], the target named is Neuronal acetylcholine receptor; alpha3/beta4 (Rattus norvegicus, UniProt P04757+P12392). Description: Agonist activity at rat alpha3beta4 nAChR expressed in Xenopus laevis oocytes. In kind it is cell-based, Oocyte.

Each structure is given as a SMILES string.

Neuronal acetylcholine receptor subunit alpha-7, sequence (Q05941 whole entry): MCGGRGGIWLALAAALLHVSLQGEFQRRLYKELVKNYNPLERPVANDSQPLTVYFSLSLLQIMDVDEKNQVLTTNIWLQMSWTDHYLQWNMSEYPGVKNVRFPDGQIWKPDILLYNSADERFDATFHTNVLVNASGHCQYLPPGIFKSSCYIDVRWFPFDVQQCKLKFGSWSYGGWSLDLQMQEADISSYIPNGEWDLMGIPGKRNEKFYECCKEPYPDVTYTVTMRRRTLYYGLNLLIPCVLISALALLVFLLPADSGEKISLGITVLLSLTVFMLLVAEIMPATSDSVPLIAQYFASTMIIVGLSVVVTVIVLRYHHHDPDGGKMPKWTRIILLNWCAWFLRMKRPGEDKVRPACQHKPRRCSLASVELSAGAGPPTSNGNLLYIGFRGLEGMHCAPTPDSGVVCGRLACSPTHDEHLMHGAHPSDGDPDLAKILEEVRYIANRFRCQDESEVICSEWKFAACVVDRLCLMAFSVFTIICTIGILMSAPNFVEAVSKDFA
Neuronal acetylcholine receptor; alpha3/beta4, sequence (P04757 whole entry): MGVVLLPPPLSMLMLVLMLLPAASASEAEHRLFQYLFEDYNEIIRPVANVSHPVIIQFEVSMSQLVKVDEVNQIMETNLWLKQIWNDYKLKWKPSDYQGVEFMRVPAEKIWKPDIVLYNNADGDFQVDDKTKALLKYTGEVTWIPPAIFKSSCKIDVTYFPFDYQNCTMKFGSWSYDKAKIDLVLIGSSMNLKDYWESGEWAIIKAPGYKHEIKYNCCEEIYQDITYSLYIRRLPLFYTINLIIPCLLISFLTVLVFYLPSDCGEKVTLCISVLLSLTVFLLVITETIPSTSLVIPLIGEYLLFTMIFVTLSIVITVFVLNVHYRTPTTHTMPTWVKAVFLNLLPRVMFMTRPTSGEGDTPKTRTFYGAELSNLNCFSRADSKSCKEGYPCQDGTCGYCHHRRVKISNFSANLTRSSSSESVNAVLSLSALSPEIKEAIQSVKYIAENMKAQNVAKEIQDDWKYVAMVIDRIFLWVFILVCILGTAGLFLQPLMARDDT
Neuronal acetylcholine receptor; alpha3/beta4, sequence (P12392 whole entry): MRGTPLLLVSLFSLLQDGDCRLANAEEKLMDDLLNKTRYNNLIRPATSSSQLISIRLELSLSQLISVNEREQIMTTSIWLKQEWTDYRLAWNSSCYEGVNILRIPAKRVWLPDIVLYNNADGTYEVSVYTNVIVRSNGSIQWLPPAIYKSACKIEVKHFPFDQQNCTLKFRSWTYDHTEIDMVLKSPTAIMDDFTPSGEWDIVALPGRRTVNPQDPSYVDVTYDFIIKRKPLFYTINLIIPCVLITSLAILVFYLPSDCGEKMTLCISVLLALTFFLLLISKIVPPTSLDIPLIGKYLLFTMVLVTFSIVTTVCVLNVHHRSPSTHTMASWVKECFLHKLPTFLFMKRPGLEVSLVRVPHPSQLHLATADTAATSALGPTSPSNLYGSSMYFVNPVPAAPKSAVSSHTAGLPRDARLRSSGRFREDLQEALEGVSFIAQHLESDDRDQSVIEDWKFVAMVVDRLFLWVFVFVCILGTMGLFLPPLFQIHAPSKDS

Consider `COc1c2c(nc3occc13)[C@@](CC=C(C)C)(OC)[C@H](O)CC2`, for which the Activity is 50% in the series with Mus musculus [1]; 80% in series [2]; 100% in series [3]; 50% in the series with Mus musculus [4]; 100% in the series on Mus musculus [5]; 100% in the series on Mus musculus [6].

A word on the EC50: it is the concentration needed to bring the measured effect to its halfway point. For `c1cncc([C@@H]2CCCN2)c1` [NORNICOTINE], the EC50 in series [7] turned out to be 17.4 µM; in series [8], 614 µM.

(Values after ChEMBL document CHEMBL4673260, “Pyridine alkaloids with activity in the central nervous system” (Bioorg Med Chem, 2020).)
